Data reported in patent publication US8729115B2 (Cardiolynx AG, priority 2010, dated 2014).
Like-named read-outs stand apart in the source and are kept apart here.

Experiments:
rat aortic ring segments = assay: Isometric tension: vasodilation of rat aortic ring segments preconstricted with phenylephrine; type: cell-based; details: for EC50 / pD2-value (vasodilatory potency): concentration-relaxation curve; for EC50 / Vasodilatory potency (in words) / pD2-value (vasodilatory potency): phenylephrine-preconstricted rat aorta; for EC50: read-out: pD2-value (vasodilatory potency) (converted)
Protocol: Vasodilation of rat aortic ring segments preconstricted with phenylephrine, Example 3, Table 1. […].
After reaching a stable preconstriction of vascular tone, the vessels were dose-dependently vasodilated until the final tone at the highest added concentration of the vasodilator was reached. The vasodilators were added at half-logarithmic concentrations starting at 10^−8 M (=10 nanomolar). Vasodilatory potency was compared creating a concentration-relaxation curve. The data are based on experiments with aorta from at least 6 rats on 3 different days.

[1] = system: isolated rat cardiac mitochondria; assay: ROS/RONS formation in isolated mitochondria (L-012 chemiluminescence)
Excerpt: Reactive oxygen and nitrogen species formation in response to in vitro challenge of isolated rat cardiac mitochondria based on reaction of the chemiluminescence dye L-012 (a luminal analogue), Example 4, Table 2. X-axis: compounds tested with concentration [μM]; y-axis: photons n per 30 sec of emission of chemiluminescence light (ECL).
Vascular oxidative stress is a well-known side effect of nitrate tolerance (an adverse condition that develops under chronic nitrate therapy). Therefore, the induction of reactive oxygen and nitrogen species formation in response to in vitro challenges with the test compounds was assessed in isolated mitochondria according to a published procedure [Daiber, A. et al., Mol Pharmacol 66 (2004), 1372-1382; Daiber, A. et al., Biochem Biophys Res Commun 338 (2005), 1865-1874; Daiber, A. et al., Mol Pharmacol 68 (2005), 579-588]. The assay is based on the reaction of the chemiluminescence dye L-012 (a luminol analogue) with reactive oxygen and nitrogen species (RONS, e.g. superoxide anion radicals, peroxynitrite anions or nitrogen dioxide radicals) and subsequent emission of chemiluminescence light (ECL). The signal is counted in photons/time (=counts/30 s). The data are based on experiments with cardiac mitochondria from at least 6 rats on 3 different days.

Wistar rats = assay: Endothelial dysfunction, in vivo tolerance and cross-tolerance after 7 days treatment; set-up: species or system rat
Protocol: To assess the tendency of a given organic nitrate to induce in vivo tolerance and endothelial dysfunction, Wistar rats were treated for 7 days with placebo (solvent alone) or 3 increasing doses of the organic nitrate. […] Vascular function was assessed by isometric tension studies as described above. Acetylcholine (ACh) is an endothelium-dependent vasodilator whereas organic nitrates (e.g. compound 1 or nitroglycerin) are endothelium-independent vasodilators. Endothelial dysfunction will result in impaired ACh-dependent relaxation whereas nitrate tolerance and/or vascular dysfunction causes impaired compound 1 dependent or nitroglycerin dependent vasodilation.

Beagle dogs = assay: Effects on blood pressure in Beagle dogs; type: in vivo, dog
Protocol: Each group was administered three ascending doses separated by 4 wash out days providing 9 different treatments as shown in the following table:
The liquid was administered per gavage. […] The capsule was administered orally.
In this group the liquid was administered intravenously as a slow bolus injection.
Blood pressure was assessed for all treatments before dosing and 1, 2, 3, 4, 5, 6, 8, 12 and 24 h after dosing.

[2] = 10-1000 μM, isolated mitochondria

| EC50 (rat aortic ring segments) | ROS formation, Mean (ECL signal) ([1]; rat, 10 μM) | ROS formation, Mean (ECL signal) ([1]; rat, 100 μM) | ROS formation, Mean (ECL signal) ([1]; rat, 1000 μM) | Compound | Isometric tension, relaxation (Mean ± SEM) (rat aortic ring segments; Log [M] −3.5) | Isometric tension, relaxation (Mean ± SEM) (rat aortic ring segments; Log [M] −4) | Isometric tension, relaxation (Mean ± SEM) (rat aortic ring segments; Log [M] −4.5) | Isometric tension, relaxation (Mean ± SEM) (rat aortic ring segments; Log [M] −5) | Isometric tension, relaxation (Mean ± SEM) (rat aortic ring segments; Log [M] −5.5) | Isometric tension, relaxation (Mean ± SEM) (rat aortic ring segments; Log [M] −6) | Isometric tension, relaxation (Mean ± SEM) (rat aortic ring segments; Log [M] −6.5) | Isometric tension, relaxation (Mean ± SEM) (rat aortic ring segments; Log [M] −7) | Isometric tension, relaxation (Mean ± SEM) (rat aortic ring segments; Log [M] −7.5) | Vasodilatory potency (in words) (rat aortic ring segments) | Effect on RONS signal / in vitro oxidative stress (in words) [1, 2] | ROS formation, Mean (ECL signal) ([1]; Conc. 10 μM) | ROS formation, Mean (ECL signal) ([1]; Conc. 100 μM) | ROS formation, Mean (ECL signal) ([1]; Conc. 1000 μM) | Isometric tension, relaxation (Mean ± SEM) (rat aortic ring segments; Log [M] −3) | pD2-value (vasodilatory potency) (rat aortic ring segments) | also measured |
| --- | --- | --- | --- | --- | --- | --- | --- | --- | --- | --- | --- | --- | --- | --- | --- | --- | --- | --- | --- | --- | --- |
| < 1000 µM | 2971.58 counts/30 s | 2871.29 counts/30 s | 9878.96 counts/30 s | CCCCC(=O)N(Cc1ccc(-c2ccccc2-c2nnn[nH]2)cc1)[C@H](C(=O)O)C(C)C [compound 3, Valsartan] | 21.98 ± 3.75% | 9.43 ± 2.03% | 4.94 ± 2.65% | 0.29 ± 2.56% | −0.58 ± 3.84% | 1.05 ± 3.85% | 0.87 ± 2.97% | 1.64 ± 3.06% | 4.25 ± 2.13% | weak relaxing effects |  |  |  |  |  |  |  |
|  |  |  |  | O=[N+]([O-])O[C@H]1CO[C@H]2[C@@H]1OC[C@H]2O[N+](=O)[O-] [ISDN, Isosorbide dinitrate] |  |  |  |  |  |  |  |  |  |  | increases the RONS signal in a concentration-dependent fashion, although only slightly | 5718.33 counts/30 s | 6608.83 counts/30 s | 8744.83 counts/30 s |  |  |  |
|  |  |  |  | O=[N+]([O-])OCCCCO [HBN, 1-Hydroxy-4-butyl nitrate] | 95.69 ± 2.40% | 77.74 ± 3.73% | 55.15 ± 5.33% | 34.50 ± 4.63% | 15.21 ± 4.71% | 7.11 ± 2.87% | 3.24 ± 2.77% | 1.42 ± 2.55% | 1.84 ± 1.72% | intermediate vasodilatory potency | somewhat more pronounced effects on RONS formation | 5116.17 counts/30 s | 3005.75 counts/30 s | 10472.33 counts/30 s | 95.71 ± 1.27% | approximately 4.5 |  |
|  |  |  |  | (2R)-3-Methyl-2-(N-((2′-(1-(2″-nitroxyethylaminocarbonyloxymethyl)-1H-tetrazol-5-yl)biphenyl-4-yl)methyl)pentanamido)butanoyl N-methyl-N-4-nitroxybutyl-amide 1A and the corresponding 2-(2″-nitroxyethylaminocarbonyloxymethyl)-2H-tetrazol-5-yl isomer 1B [compound 1] | 91.52 ± 3.83% | 88.20 ± 5.11% | 81.43 ± 6.54% | 59.97 ± 6.28% | 43.47 ± 5.88% | 27.39 ± 4.09% | 14.66 ± 2.59% | 8.52 ± 1.64% | 4.64 ± 0.93% |  |  | 6820.33 counts/30 s | 4534.00 counts/30 s | 5088.33 counts/30 s |  | approximately 5.5 | Vasodilatory potency (in words) (rat aortic ring segments; listed as Valsartan dinitrate 1): as potent as isosorbide dinitrate; Vasodilatory potency (in words) (rat aortic ring segments; listed as valsartan dinitrate 1): as active as isosorbide dinitrate; Adverse effects on endothelial or vascular function, in vivo tolerance or cross tolerance (Wistar rats; low and middle dose): did not show any significant adverse effects on endothelial or vascular function; Toxic effects (Wistar rats; up to the highest dose): not show any toxic effects; Blood pressure lowering effect (in words) (Beagle dogs; gavage, oral capsule or intravenous, ascending doses): two sequential lowerings of blood pressure; Duration of effect on blood pressure (Beagle dogs; overall): at least 10 hours; Blood pressure lowering observed up to (Beagle dogs; several animals): up to 24 hours; Effect on RONS signal / in vitro oxidative stress (in words) ([1]; 10-1000 μM, isolated mitochondria, listed as dinitrate 1): RONS signal is suppressed at higher concentrations; Effect on RONS signal / in vitro oxidative stress (in words) ([1]; 10-1000 μM, isolated mitochondria, listed as valsartan dinitrate 1): does not induce in vitro oxidative stress in isolated mitochondria |
| < 100 µM | 9007.83 counts/30 s | 4532.33 counts/30 s | 4386.00 counts/30 s | CCCCC(=O)N(Cc1ccc(-c2ccccc2-c2nnn[nH]2)cc1)C(C(=O)N(C)CCCCO[N+](=O)[O-])C(C)C [compound 2, (2R)-3-Methyl-2-(N-((2′-(1H-tetrazol-5-yl)biphenyl-4-yl)methyl)pentanamido)-butanoyl N-methyl-N-4-nitroxybutyl-amide] | 50.40 ± 7.89% | 31.38 ± 6.92% | 13.69 ± 3.68% | 8.61 ± 2.77% | 8.56 ± 2.18% | 7.43 ± 1.86% | 6.06 ± 1.69% | 4.61 ± 1.19% | 2.45 ± 0.93% |  |  |  |  |  |  |  |  |

| Compound | EC50 (rat aortic ring segments) | ROS formation, Mean (ECL signal) ([1]; rat, 10 μM) | ROS formation, Mean (ECL signal) ([1]; rat, 100 μM) | ROS formation, Mean (ECL signal) ([1]; rat, 1000 μM) | Isometric tension, relaxation (Mean ± SEM) (rat aortic ring segments; Log [M] −3.5) | Isometric tension, relaxation (Mean ± SEM) (rat aortic ring segments; Log [M] −4) | Isometric tension, relaxation (Mean ± SEM) (rat aortic ring segments; Log [M] −4.5) | Isometric tension, relaxation (Mean ± SEM) (rat aortic ring segments; Log [M] −5) | Isometric tension, relaxation (Mean ± SEM) (rat aortic ring segments; Log [M] −5.5) | Isometric tension, relaxation (Mean ± SEM) (rat aortic ring segments; Log [M] −6) | Isometric tension, relaxation (Mean ± SEM) (rat aortic ring segments; Log [M] −6.5) | Isometric tension, relaxation (Mean ± SEM) (rat aortic ring segments; Log [M] −7) | Isometric tension, relaxation (Mean ± SEM) (rat aortic ring segments; Log [M] −7.5) | Vasodilatory potency (in words) (rat aortic ring segments) | Effect on RONS signal / in vitro oxidative stress (in words) [1, 2] | ROS formation, Mean (ECL signal) ([1]; Conc. 10 μM) | ROS formation, Mean (ECL signal) ([1]; Conc. 100 μM) | ROS formation, Mean (ECL signal) ([1]; Conc. 1000 μM) | Isometric tension, relaxation (Mean ± SEM) (rat aortic ring segments; Log [M] −3) | pD2-value (vasodilatory potency) (rat aortic ring segments) | also measured |
| --- | --- | --- | --- | --- | --- | --- | --- | --- | --- | --- | --- | --- | --- | --- | --- | --- | --- | --- | --- | --- | --- |
| CNCCCCO[N+](=O)[O-].O=[N+]([O-])O [MNBAN, N-Methyl-N-(4-nitroxybutyl)ammonium nitrate] | ~31.6 µM |  |  |  | 88.56 ± 2.69% | 74.46 ± 4.13% | 50.81 ± 6.88% | 30.56 ± 7.29% | 14.85 ± 5.75% | 8.33 ± 4.85% | 5.04 ± 3.29% | 3.24 ± 2.80% | 1.72 ± 1.50% | intermediate vasodilatory potency |  |  |  |  | 95.84 ± 2.26% |  | Effect on RONS signal / in vitro oxidative stress (in words) [1]: somewhat more pronounced effects on RONS formation |
